In patent US11919902B2, “Aryl-bipyridine amine derivatives as phosphatidylinositol phosphate kinase inhibitors” (HiberCell, Inc., priority 2017, dated 2024):
pIC50: −log10 of the molar value.

Experiments:
[1] = biological target: T1, PIP4K2A (full length protein, SignalChem) (Homo sapiens, UniProt P48426); assay: Kinase Assay PIP4K2 A (Sprint); ADP-Glo biochemical assay; details: Table 2; compounds listed under IC50 range headings
T1 construct: 4 nM PIP4K2A (full length protein, SignalChem); purchased SignalChem
T1 sequence (P48426 1-406): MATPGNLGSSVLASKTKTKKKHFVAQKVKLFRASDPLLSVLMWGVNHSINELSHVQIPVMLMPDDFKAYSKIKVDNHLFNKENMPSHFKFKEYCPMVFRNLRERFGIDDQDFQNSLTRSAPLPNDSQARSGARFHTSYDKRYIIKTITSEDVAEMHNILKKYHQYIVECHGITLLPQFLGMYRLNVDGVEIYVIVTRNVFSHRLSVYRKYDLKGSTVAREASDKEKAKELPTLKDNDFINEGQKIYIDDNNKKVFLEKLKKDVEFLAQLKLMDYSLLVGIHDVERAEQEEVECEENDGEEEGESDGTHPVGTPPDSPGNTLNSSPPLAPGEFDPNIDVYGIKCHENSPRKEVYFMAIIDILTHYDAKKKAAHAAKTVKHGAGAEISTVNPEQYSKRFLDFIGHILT
Summary of the method: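 ADP-Glo luminescence detected ADP after a 1 h RT reaction started with 60 μM ATP solution. Before that, full-length PIP4K2A (4 nM in mix) with 100 μM PI(5)P diC8 was pre-incubated 15 min with compounds in MOPS buffer pH 7.2, 25 mM MgCl2, 0.005% Tween 20. IC50 derived from % inhibition relative to DMSO over 10 three-fold concentrations.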

GST tagged PIP4KtypeIIA = biological target: T2, GST tagged PIP4KtypeIIA (Homo sapiens, UniProt P48426); assay: ADP-glo kinase assay PIP4K 2A (PIP4KtypeIIA inhibition assay); assay type: biochemical; details: Table 3; compounds listed under IC50 range headings; 10 uM ATP, 0.5 nM PIP4KIIA
T2 construct: made in house; host or cells: E. coli
T2 sequence (P48426 1-406): T1 sequence (P48426 1-406)
Summary of the method: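 Read-out was ADP-Glo luminescence converted to μM ADP, with IC50 plotted as % of no-inhibitor activity against log concentration. Reactions contained 10 μM ATP, 80 μM PI5P with DOPE carrier, and 0.5 nM GST-tagged PIP4KIIA (E. coli-expressed) in pH 7.3 HEPES/MgCl2 buffer with 5% DMSO. Enzyme and compound (≤4.8 μM) were preincubated 1 h at 27 °C before the 1 h reaction.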

GST tagged PIP4KtypeIIB = biological target: T3, GST tagged PIP4KtypeIIB (Homo sapiens, UniProt P78356); assay: Trans-FI P kinase assay PIP4K2B (PIP4KtypeIIB inhibition assay); assay type: biochemical; details: Table 4; compounds listed under IC50 range headings; 100 uM GTP, 5 nM PIP4KIIB; read-out: Trans-FI P kinase assays: PIP4K2B IC50
T3 construct: made in house; host or cells: E. coli
T3 sequence (P78356 1-416): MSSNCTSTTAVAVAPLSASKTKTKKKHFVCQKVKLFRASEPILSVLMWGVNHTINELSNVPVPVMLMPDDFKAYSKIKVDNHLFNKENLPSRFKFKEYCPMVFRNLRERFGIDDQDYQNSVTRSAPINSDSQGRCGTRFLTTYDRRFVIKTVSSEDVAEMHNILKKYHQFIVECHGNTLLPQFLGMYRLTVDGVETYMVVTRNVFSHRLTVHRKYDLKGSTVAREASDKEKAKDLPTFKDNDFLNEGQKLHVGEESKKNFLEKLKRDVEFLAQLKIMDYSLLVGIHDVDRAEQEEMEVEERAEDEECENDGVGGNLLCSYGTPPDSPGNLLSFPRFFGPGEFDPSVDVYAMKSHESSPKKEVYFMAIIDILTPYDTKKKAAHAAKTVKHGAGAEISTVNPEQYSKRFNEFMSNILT
Summary of the method: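 Transcreener FI fluorescence, converted to GDP by calibration, tracked product from 5 nM E. coli-expressed GST-PIP4KIIB acting on 80 uM PI5P (DOPE carrier) with 100 uM GTP. Compound (top 4.8 uM final, 5% DMSO) was preincubated 1 h at 27 C before the 2 h reaction; IC50 fitted from residual activity.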

| Compound | pIC50 [1] | pIC50 (GST tagged PIP4KtypeIIA) | pIC50 (GST tagged PIP4KtypeIIB) |
| --- | --- | --- | --- |
| COc1ncc(-c2cncc(-c3ccc(N4CCCC4=O)cc3)c2)c2cn(C)nc12 [Example 157, 1-[4-[5-(7-methoxy-2-methyl-pyrazolo[3,4-c]pyridin-4-yl)-3-pyridyl]phenyl]pyrrolidin-2-one] | 6.00 to 7.00 | 6.00 to 7.00 | 6.00 to 7.00 |
| Cn1ncc2c(-c3cncc(-c4ccc(N5CCCC5=O)cc4)c3)c[nH]c(=O)c21 [Example 158, 1-methyl-4-(5-(4-(2-oxopyrrolidin-1-yl)phenyl)pyridin-3-yl)-1,6-dihydro-7H-pyrazolo[3,4-c]pyridin-7-one] | 7.00 to 8.30 | 6.00 to 7.00 | 6.00 to 7.00 |
| Cn1cc2c(-c3cncc(-c4ccc(N5CCCC5=O)cc4)c3)c[nH]c(=O)c2n1 [Example 159, 2-methyl-4-(5-(4-(2-oxopyrrolidin-1-yl)phenyl)pyridin-3-yl)-2,6-dihydro-7H-pyrazolo[3,4-c]pyridin-7-one] | 7.00 to 8.30 | 6.00 to 7.00 | 6.00 to 7.00 |
| CC(C)OC(=O)c1cc2c(-c3cncc(-c4ccc(N5CCCC5=O)cc4)c3)ccnc2[nH]1 [Example 161, isopropyl 4-(5-(4-(2-oxopyrrolidin-1-yl)phenyl)pyridin-3-yl)-1H-pyrrolo[2,3-b]pyridine-2-carboxylate] | 7.00 to 8.30 | 6.00 to 7.00 | 7.00 to 8.00 |
| CCOC(=O)c1cc2c(-c3cncc(-c4ccc(N5CCCC5=O)cc4)c3)ccnc2[nH]1 [Example 162, ethyl 4-(5-(4-(2-oxopyrrolidin-1-yl)phenyl)pyridin-3-yl)-1H-pyrrolo[2,3-b]pyridine-2-carboxylate] | 7.00 to 8.30 | 6.00 to 7.00 | 7.00 to 8.00 |
| O=C(NC1COC1)c1cc2c(-c3cncc(-c4ccc(N5CCCC5=O)cc4)c3)ccnc2o1 [Example 166, N-(oxetan-3-yl)-4-(5-(4-(2-oxopyrrolidin-1-yl)phenyl)pyridin-3-yl)furo[2,3-b]pyridine-2-carboxamide] | 7.00 to 8.30 | 7.00 to 8.00 | 6.00 to 7.00 |
| CNC(=O)c1cc2c(-c3cncc(-c4ccc(N5CCCC5=O)cc4C)c3)ccnc2o1 [Example 170, N-methyl-4-(5-(2-methyl-4-(2-oxopyrrolidin-1-yl)phenyl)pyridin-3-yl)furo[2,3-b]pyridine-2-carboxamide] | 7.00 to 8.30 | 6.00 to 7.00 | 6.00 to 7.00 |
| Cc1c(-c2ccc(N3CCCC3=O)cc2)cncc1-c1cn(C)c2ncc(C(C)(C)O)cc12 [Example 172, 1-(4-(5-(5-(2-hydroxypropan-2-yl)-1-methyl-1H-pyrrolo[2,3-b]pyridin-3-yl)-4-methylpyridin-3-yl)phenyl)pyrrolidin-2-one] | 6.00 to 7.00 | 5.60 to 6.00 | 5.60 to 6.00 |
| Cc1c(-c2ccc(N3CCCC3=O)cc2)cncc1-c1ccnc2[nH]c(C(=O)N(C)C)cc12 [Example 173, N,N-dimethyl-4-(4-methyl-5-(4-(2-oxopyrrolidin-1-yl)phenyl)pyridin-3-yl)-1H-pyrrolo[2,3-b]pyridine-2-carboxamide] | 7.00 to 8.30 | 6.00 to 7.00 | 6.00 to 7.00 |
| CNC(=O)c1cc2c(-c3cncc(-c4ccc(N5CCCC5=O)cc4)c3C)ccnc2o1 [Example 174, N-methyl-4-(4-methyl-5-(4-(2-oxopyrrolidin-1-yl)phenyl)pyridin-3-yl)furo[2,3-b]pyridine-2-carboxamide] | 7.00 to 8.30 | 6.00 to 7.00 | 6.00 to 7.00 |
| O=C1CCCN1c1ccc(-c2cncc(-n3cnc4ccccc43)c2)cc1 [Example 177, 1-(4-(5-(1H-benzo[d]imidazol-1-yl)pyridin-3-yl)phenyl)pyrrolidin-2-one] | 6.00 to 7.00 | 6.00 to 7.00 | 6.00 to 7.00 |
| CN(CC1CCNCC1)C(=O)c1ccc(-c2cncc(-c3ccncc3)c2)cc1 [Example 179, 4-([3,4′-bipyridin]-5-yl)-N-methyl-N-(piperidin-4-ylmethyl)benzamide] | > 5.30 | < 5.30 | < 5.30 |

Other lines, results leading:

| pIC50 [1] | pIC50 (GST tagged PIP4KtypeIIA) | pIC50 (GST tagged PIP4KtypeIIB) | Compound |
| --- | --- | --- | --- |
| 6.00 to 7.00 | 6.00 to 7.00 | 6.00 to 7.00 | Cn1ncc2c(-c3cncc(-c4ccc(N5CCCC5=O)cc4)c3)cn(CC#N)c(=O)c21 [Example 160, 2-(1-methyl-7-oxo-4-(5-(4-(2-oxopyrrolidin-1-yl)phenyl)pyridin-3-yl)-1,7-dihydro-6H-pyrazolo[3,4-c]pyridin-6-yl)acetonitrile] |
| 7.00 to 8.30 | 6.00 to 7.00 | 7.00 to 8.00 | O=C(O)c1cc2c(-c3cncc(-c4ccc(N5CCCC5=O)cc4)c3)ccnc2[nH]1 [Example 163, 4-(5-(4-(2-oxopyrrolidin-1-yl)phenyl)pyridin-3-yl)-1H-pyrrolo[2,3-b]pyridine-2-carboxylic acid] |
| 5.30 to 5.60 | < 5.30 | 5.30 to 5.60 | Cc1ncc(-c2ccncc2)cc1-c1ccc(N2CCCC2=O)cc1 [Example 164, 1-(4-(6-methyl-3,4′-bipyridin-5-yl)phenyl)pyrrolidin-2-one] |
| 7.00 to 8.30 | 7.00 to 8.00 | 7.00 to 8.00 | COC(=O)c1cc2c(-c3cncc(-c4ccc(N5CCCC5=O)cc4)c3)ccnc2o1 [Example 165, methyl 4-(5-(4-(2-oxopyrrolidin-1-yl)phenyl)pyridin-3-yl)furo[2,3-b]pyridine-2-carboxylate] |
| 7.00 to 8.30 | 7.00 to 8.00 | 7.00 to 8.00 | CC(C)OC(=O)c1cc2c(-c3cncc(-c4ccc(N5CCCC5=O)cc4)c3)ccnc2o1 [Example 167, isopropyl 4-(5-(4-(2-oxopyrrolidin-1-yl)phenyl)pyridin-3-yl)furo[2,3-b]pyridine-2-carboxylate] |
| 6.00 to 7.00 | 5.30 to 5.60 | 5.30 to 5.60 | Cc1cc(N2CCCC2=O)ccc1-c1cncc(-c2cn(C)c3ncc(C(C)(C)O)cc23)c1 [Example 168, 1-(4-(5-(5-(2-hydroxypropan-2-yl)-1-methyl-1H-pyrrolo[2,3-b]pyridin-3-yl)pyridin-3-yl)-3-methylphenyl)pyrrolidin-2-one] |
| 6.00 to 7.00 | 5.60 to 6.00 | 6.00 to 7.00 | Cc1cc(N2CCCC2=O)ccc1-c1cncc(-c2ccnc3[nH]c(C(=O)N(C)C)cc23)c1 [Example 169, N,N-dimethyl-4-(5-(2-methyl-4-(2-oxopyrrolidin-1-yl)phenyl)pyridin-3-yl)-1H-pyrrolo[2,3-b]pyridine-2-carboxamide] |
| 7.00 to 8.30 | 7.00 to 8.00 | 7.00 to 8.00 | COC(=O)c1cc2c(-c3cncc(-c4ccc(N5CCCC5=O)cc4C)c3)ccnc2[nH]1 [Example 171, methyl 4-(5-(2-methyl-4-(2-oxopyrrolidin-1-yl)phenyl)pyridin-3-yl)-1H-pyrrolo[2,3-b]pyridine-2-carboxylate] |
| 7.00 to 8.30 | 7.00 to 8.00 | 7.00 to 8.00 | COC(=O)c1cc2c(-c3cncc(-c4ccc(N5CCCC5=O)cc4)c3C)ccnc2[nH]1 [Example 175, methyl 4-(4-methyl-5-(4-(2-oxopyrrolidin-1-yl)phenyl)pyridin-3-yl)-1H-pyrrolo[2,3-b]pyridine-2-carboxylate] |
| 7.00 to 8.30 | 6.00 to 7.00 | 5.60 to 6.00 | Cn1cc(-c2cncnc2)c2cc(-c3cncc(-c4ccc(N5CCCC5=O)cc4)c3)cnc21 [Example 176, 1-(4-(5-(1-methyl-3-(pyrimidin-5-yl)-1H-pyrrolo[2,3-b]pyridin-5-yl)pyridin-3-yl)phenyl)pyrrolidin-2-one] |
